Data from patent publication US20230212638A1 (priority 2020, published 2023).

Experiments:
Format in all cases: cell-based
[1] = tested on: NBRC3301 (Escherichia coli control strain); assay: Drug sensitivity of Escherichia coli NBRC3301 by resonance frequency shift on GHz array sensor
Protocol: By using NBRC3301 as a control strain of Escherichia coli, the inventors conducted verification experiments of growth and drug sensitivity of Escherichia coli by the test method above.
In this experiment, streptomycin (aminoglycoside) being a concentration-dependent drug was used. 196 μL of a control sample of NBRC3301 was mixed with 4 μL of SM at a concentration of 25 mg/mL to prepare a sample for drug sensitivity evaluation at a SM concentration of 500 μg/mL (SM_500 μg/mL). Further, the amount of the SM to be added to the control sample was adjusted to prepare a sample for drug sensitivity evaluation at a SM concentration of 250 μg/mL (SM_250 μg/mL) and a sample for drug sensitivity evaluation at a SM concentration of 125 μg/mL (SM_125 μg/mL). Furthermore, in order to verify the frequency shift of a killed bacterium, a sample was prepared by subjecting 200 μL of a control sample to heat treatment at 98° C. for 30 minutes. […]
The samples thus prepared were introduced into different containers 60, respectively, and the frequency shift was measured for each sample. […] In analysis processing, frequency shifts of all the 1488 elements on array sensor 10 were measured every 10 seconds, the average value of the measured frequency shifts was calculated every 5 minutes, and extracted as the frequency shift at each timing of the measurement. […]

[2] = tested on: BCG (Mycobacterium bovis); details: SM sample: 196 μL control sample + 4 μL SM at 25 mg/mL; 20 elements; 12 hours; 37° C.; FIG. 10(b)
[3] = tested on: NBRC12993 (Staphylococcus epidermidis control strain); assay: Drug sensitivity of Staphylococcus epidermidis NBRC12993 by resonance frequency shift on GHz array sensor; details: PIPC 10.0 μg/mL
Source text: By using NBRC12993 being a control strain of Staphylococcus epidermidis, the inventors conducted verification experiments of growth and drug sensitivity of Staphylococcus epidermidis by the test method above.
In this experiment, piperacillin (penicillin) being a time-dependent drug was used. That is, this drug exerts an inhibitory action on growth by retaining the effective drug concentration for a certain period of time. A control sample of NBRC12993 was mixed with piperacillin (PIPC) to prepare a sample for drug sensitivity evaluation at a […] concentration of 10.0 μg/mL (PIPC 10.0 μg/mL). Further, in order to verify the frequency shift of a killed bacterium, a sample was prepared by subjecting 200 μL of a control sample to heat treatment at 98° C. for 30 minutes.
The samples thus prepared were introduced into different containers 60, respectively, and the frequency shift was measured for each sample. In this case, capping solvent 300 was not added into each container 60. The temperatures of an incubator and a Peltier element during the measurement were set in a similar manner to Example 1 above. In analysis processing, frequency shifts of all the 1488 elements on array sensor 10 were measured every 10 seconds, the average value of the measured frequency shifts was calculated every 5 minutes, and extracted as the frequency shift at each timing of the measurement. In addition to this, in Example 3, a region where the growth of Staphylococcus epidermidis was observed was designated on the display image, and the average value of the frequency shifts in this growth region was calculated every 5 minutes. […]
Further, FIG. 12(b) is a display image showing a frequency shift of each element by color when a control sample to which PIPC was not added was measured at the time point after the lapse of 240 minutes, and FIG. 12(c) is a display image showing a frequency shift of each element by color when a sample for drug sensitivity evaluation to which PIPC was added (PIPC 10.0 μg/mL) was measured at the time point after the lapse of 240 minutes. […]

## [H]/N=C(/N)N[C@H]1[C@H](O)[C@@H](O)[C@H](O[C@@H]2O[C@@H](C)[C@](O)(C=O)[C@H]2O[C@@H]2O[C@@H](CO)[C@H](O)[C@@H](O)[C@@H]2NC)[C@@H](N/C(N)=N\[H])[C@@H]1O [SM, streptomycin]
[1]; SM 500 μg/mL, after the lapse of 60 minutes, FIG. 11(c)
  frequency shift of each element in display image: the frequency shifts of all the elements were uniformly suppressed low
[1]; SM 500, 250 and 125 μg/mL, average of all 1488 elements, 60 minutes, no capping solvent, suppression greater at higher concentration, FIG. 11(a)
  increase in the frequency shift with the lapse of time, compared with control sample: the increase in the frequency shift was suppressed
[2]
  growth of BCG reflected on the frequency shift of each element: growth of BCG was suppressed

## CCN1CCN(C(=O)N[C@@H](C(=O)N[C@@H]2C(=O)N3[C@@H]2SC(C)(C)[C@@H]3C(=O)O)c2ccccc2)C(=O)C1=O [PIPC, piperacillin]
[3]; 240 minutes, no capping solvent, compared with heat-treated killed bacteria, FIG. 12(a)
  increase in the frequency shift with the lapse of time: the increase in the frequency shift was suppressed more than that in the case where heat treatment was performed
[3]; FIG. 12(a)
  time from start of measurement until which the frequency shift increased, decreasing trend thereafter (time-dependent action): around 120 minutes
[3]; after the lapse of 240 minutes, FIG. 12(c)
  frequency shift of each element in display image: the frequency shifts of all the elements were uniformly suppressed low
